Test results as given in patent US4100291A, “Novel 1,4-benzodioxanes” (Roussel Uclaf, priority 1976, dated 1978).
Where a name gives a salt, the structure may show the parent alone.

Columns and labels:
[1] = tested on: arterial pressure measured at the rat's tail; assay: Antihypertensive activity in spontaneous hypertensive rats, oral (Table III); assay type: in vivo, spontaneous hypertendus male rats of the Okamoto strain
Experimental: The antihypertensive activity was determined on spontaneous hypertendus male rats of the Okamoto strain 8 weeks old and the test products were orally administered daily for 9 days. The arterial pressure was measured at the rat's tail by means of a pneumatic collar connected to an electronic transducer of pressure.

[2] = Acute toxicity in mice, intraperitoneal (Table I); conditions: mouse, in vivo, ip, suspension in carboxymethylcellulose, observed one week
Description: The results are in Table I.

[3] = tested on: carotidine arterial pressure; assay: Hypotensive activity in anesthetized rats, intravenous (Table II); assay type: in vivo, male rats of the Sprague-Dawley SPF strain; conditions: for % Variation in pressure: compared to initial carotid arterial pressure; for Duration of Activity: time for pressure to return to initial value
Experimental: The hypotensive activity was determined on male rats of the Sprague-Dawley SPF strain weighing about 300 g which had been anestesized with nembutal (50 mg/kg intraveinously). The product was administered intraveinously by the jugular vein and the carotidine arterial pressure was measured before and after the administration of the test product. Table II reports the variations expressed in percent of arterial pressure after administration of the test product as compared to the initial arterial pressure as well as the time necessary for the pressure to return to the initial value.

[4] = daily dose 50 mg/kg oral, 1st Day, 1 hr after 1st ad.
[5] = daily dose 50 mg/kg oral, 1st Day, 4 hr. after

Row | Structure (SMILES) | % Pressure variation [1, 4] [%] | % Pressure variation [1, 5] [%] | LD50 at 168 h [2] [mg/kg] | Duration of Activity ([3]; 1 mg/kg) [min] | % Variation in pressure ([3]; 1 mg/kg) [%] | other results
1 | OC(CN1CC=C(c2c[nH]c3ccccc23)CC1)C1COc2ccccc2O1 (stereo not drawn) [Example 4, α-(2,3-dihydro-1,4-benzodioxin-2-yl)-4-([1H]-indol-3-yl)-1,2,3,6-tetrahydro-1-pyridine-ethanol] | -10 | -18 |  |  |  | 
2 | COc1ccc2[nH]cc(C3CCN(CC(O)C4COc5ccccc5O4)CC3)c2c1 (single isomer, unassigned) [Example 2 isomer A, isomer A of (dl) α-(2,3-dihydro-1,4-benzodioxin-2-yl)-4-(5-methoxy-[1H]-indol-3-yl)-1-piperidine-ethanol] |  |  | ~500 | 60 |  | % Variation in pressure ([3]; 1 mg/kg, listed as 2 isomer A): -14%
3 | OC(CN1CCC(c2c[nH]c3ccccc23)CC1)C1COc2ccccc2O1 (racemic) [Example 1, (d,l) erythro α-(2,3-dihydro-1,4-benzodioxin-2-yl)-4-([1H]-indol-3-yl)-1-piperidine-ethanol hydrochloride] | -11 | -12 | ~100 | 45 | -25 | % Pressure variation ([1]; daily dose 50 mg/kg oral for 9 days, 10th Day, 24 hr. after 1st ad. (so in the source)): -15%; % Variation in pressure ([3]; 0.1 mg/kg): -10%; Duration of Activity ([3]; 0.1 mg/kg): 30 min
4 | Cn1cc(C2CCN(CC(O)C3COc4ccccc4O3)CC2)c2ccccc21 (stereo not drawn) [Example 5, α-(2,3-dihydro-1,4-benzodioxin-2-yl)-4-(1-methyl-[1H]-indol-3-yl)-1-piperidine-ethanol] |  |  | ~250 | 30 | -10 | 
5 | COc1ccc2[nH]cc(C3CCN(CC(O)C4COc5ccccc5O4)CC3)c2c1 (single isomer, unassigned) [Example 2 isomer B, isomer B of (dl) α-(2,3-dihydro-1,4-benzodioxin-2-yl)-4-(5-methoxy-[1H]-indol-3-yl)-1-piperidine-ethanol] |  |  |  | 60 |  | % Variation in pressure ([3]; 1 mg/kg, listed as 2 isomer B): -20%
6 | COc1ccc2c(C3CCN(CC(O)C4COc5ccccc5O4)CC3)c(C)[nH]c2c1.Cl (stereo not drawn) [Example 3, α-(2,3-dihydro-1,4-benzodioxin-2-yl)-4-(6-methoxy-2-methyl-[1H]-indol-3-yl)-1-piperidine-ethanol hydrochloride] | -26 | -27 |  | 60 |  | % Variation in pressure ([3]; 10 mg/kg): -25%; Duration of Activity ([3]; 10 mg/kg): 60 min
